Values quoted from earlier work, collected in patent publication US9687445B2, “Oral film containing opiate enteric-release beads” (LTS Lohmann Therapie-Systeme AG, priority 2012, dated 2017).

C=CCN1CC[C@]23c4c5ccc(O)c4O[C@H]2C(=O)CC[C@@]3(O)[C@H]1C5 [naloxone]
pKa: about 7.94
